The source of these data is paper PMC11668526, “The satiety hormone cholecystokinin gates reproduction in fish by controlling gonadotropin secretion” (eLife, 2024).

Entries after “also recorded” stand apart in the source; their conditions may differ.

The test system of one experiment is LH cells. The experiment in a line: Ex vivo calcium imaging (RCaMP2), LH cells. It is filed as cell-based, zebrafish. How it is done: (§1) Overall, whereas GnRH elicited a response in 95% of LH cells, only 56% of FSH cells responded to the treatment in the same fish (Figure 3E).
(§2) To functionally test the effect of CCK on gonadotroph activity, we applied the peptide (300 μl of 30 μg/ml CCK, 78.74 µM) to our ex vivo preparation and monitored the calcium response of the cells. […] The calcium response in FSH cells was highly synchronized (mean max cross-correlation coefficient, 0.7 ± 0.04; Figure 4B; Figure 4—figure supplement 1B). By contrast, the response of LH cells to CCK application was characterized by low mean of max cross-correlation coefficient values (0.43 ± 0.05; Figure 4B; Figure 4—figure supplement 1B).
(§3) Adult fish were euthanized using ice-cold water and decapitated. The head was transferred to ice-cold ACSF (124 mM NaCl, 3 mM KCl, 2 mM CaCl2, 2 mM MgSO4, 1.25 mM NaH2PO4, 26 mM NaHCO3, and 10 mM glucose (pH 7.2)) perfused with 5% CO2 and 95% O2. The heads were further dissected under a stereomicroscope. The ventral side of the head, including the jaw, gills, and mucus, was removed using fine forceps and microscissors, the optic nerves were cut and the eyes were removed. Next, the bone at the base of the skull that covers the pituitary (sella turcica) was removed using fine forceps. The head was placed in a dedicated chamber (Figure 3B) and stabilized with a slice anchor. The chamber had one inlet and one outlet, allowing for a constant flow of ACSF at a rate of 1 ml/min, and an additional inlet that was placed in proximity to the tissue for injections of stimuli. The total volume of ACSF in the chamber was 3 ml.
Imaging was performed in an inverted confocal fluorescent microscope (Leica SP8). R-CaMP2 activity was imaged at 4–10 Hz using the resonant scanner. The laser wavelength was 540 nm and the emission band was 630 nm. Images were taken using the 20x objective. Each imaging session lasted 10 min. Before and after each session, the tissue was imaged once for GFP (excitation, 488 nm, and emission, 530 nm) and R-CaMP2 (540 nm and 590 nm) in two separate channels. Images were processed using the Fiji program ([Schindelin et al., 2012]) for resolution using the Gaussian Blur filter and motion correction using the moco plugin ([Dubbs et al., 2016]).
(§4) To measure hormone secretion in response to salmon GnRH analogue (D-Ala6,Pro9-Net)-mammalian GnRH (Bachem Inc, Torrance, CA) or zebrafish CCK [D-Y-[SO3H]-L-G-W-M-D-F, synthesized by GL Biochem] stimulation, the medium was collected through the chamber outlet during the entire imaging session (10 ml per session in total). Each pituitary was imaged three times for 10 min: before, during, and after stimulation. The stimulus was applied manually as a pulse of 300 μl of 30 μg/μl (78.74 µM) peptide during the first 30 s of the imaging session. Hormones were measured in the fractions before and after stimulation using ELISA developed for common carp, which was established in the Levavi-Sivan lab using recombinant carp gonadotropins produced in yeast, and had been previously shown to be suitable for zebrafish ([Whitlock et al., 2019]).
Tissue viability was validated by monitoring the morphology and activity of the cells, looking at granulation and calcium changes. This specific preparation was also viable 2 hr after dissection, when all the cells responded to the different stimuli.
A composite of GFP-positive and RCaMP-positive cells was created to distinguish between LH and FSH cells. […]

The next experiment deals with FSH cells. The experiment in a line: Ex vivo calcium imaging (RCaMP2), FSH cells. The format is cell-based, zebrafish. The following applies: 78.74 µM. How it is done: as §1, §2
as §3, with “The chamber had one inlet and one outlet, allowing for a constant flow of ACSF at a rate of 1 ml/min, and an additional inlet that was placed in proximity to the tissue for injections of stimuli. The total volume of ACSF in the chamber was 3 ml.” left out
as §4, with “Each pituitary was imaged three times for 10 min: before, during, and after stimulation. The stimulus was applied manually as a pulse of 300 μl of 30 μg/μl (78.74 µM) peptide during the first 30 s of the imaging session.” left out, “2019]). […]” for “2019]).”

The test system of a further experiment is LH secretion. The experiment in a line: Ex vivo LH secretion into perfused medium, ELISA. It is filed as cell-based, zebrafish. The following applies: GnRH pulse 300 μl of 30 μg/μl, n=5, paired t-test.
Excerpt: (§5) The calcium response observed in LH and FSH cells upon GnRH and CCK stimulation indicates a preferential stimulatory effect of the neuropeptides on each cell type. The effect of these neuropeptides on LH and FSH secretion was examined in order to determine the functional outcome of the stimulation. For that, we collected the medium perfused through our ex vivo system (Figure 3A and B) during our calcium imaging assays. The medium was subsequently used to measure LH and FSH secretion using a specific ELISA validated for zebrafish GTHs ([Hollander-Cohen et al., 2018]).
(§6) Adult fish were euthanized using ice-cold water and decapitated. […]
as §4, with “Each pituitary was imaged three times for 10 min: before, during, and after stimulation. The stimulus was applied manually as a pulse of 300 μl of 30 μg/μl (78.74 µM) peptide during the first 30 s of the imaging session.” left out

Another experiment concerns FSH secretion. Briefly: Ex vivo FSH secretion into perfused medium, ELISA. It is filed as cell-based, zebrafish. The conditions noted are these: GnRH pulse 300 μl of 30 μg/μl (78.74 µM), n=5, paired t-test.
Excerpt: as §5, §6
as §4, with “Each pituitary was imaged three times for 10 min: before, during, and after stimulation. The stimulus was applied manually as a pulse of 300 μl of 30 μg/μl (78.74 µM) peptide during the first 30 s of the imaging session.” left out
A general note: In an ELISA, binding on a coated surface is turned into a signal by an enzyme label.

A further experiment deals with FSH plasma levels. Briefly: In vivo injection: FSH plasma levels (ELISA). Also noted: species or system zebrafish. The following applies: intraperitoneal, 100 ng/g body weight, 2 hr; n=10; Fig 5C and D. How it is done: (§7) Six-month-old zebrafish (five males and five females) were injected intraperitoneally with the following: (1) fish CCK peptide [(D-Y[SO3H]-L-G-W-M-D-F-NH (2), synthesized by GL Biochem] at a concentration of 10 ng/g or 100 ng/g body weight, 2) salmon GnRH analogue (D-Ala6,Pro9-Net)-mammalian GnRH (Bachem Inc, Torrance, CA) at a concentration of 100 ng/g body weight, (3) similar volumes of saline. Two hours post-injection, the fish were sedated using MS-222, bled from the heart as previously described ([Biran et al., 2012]), and decapitated. Pituitaries were dissected under a stereomicroscope and placed in Total RNA Isolation Reagent (Trizol). From each fish, between 15 μl and 20 μl of blood was collected. The blood was centrifuged at 970 × g 30 min and the plasma was separated and stored at −20 °C. LH and FSH expression in the pituitary was measured using real-time PCR (see Figure 5—source data 1 for primer list). RNA extraction, reverse transcription of RNA, and real-time PCR were carried out as previously described ([Biran et al., 2008]). FSH secretion was measured in the plasma using ELISA for common carp, which was established in the Levavi Sivan lab using recombinant carp gonadotropins from in the yeast, and had been previously shown to be suitable for zebrafish ([Hollander-Cohen et al., 2018]).

The test system of experiment [1] is LH expression in the pituitary. The experiment in a line: In vivo injection: LH expression in pituitary (real-time PCR). The arrangement: species or system zebrafish. The conditions noted are these: intraperitoneal, 100 ng/g body weight, 2 hr, n=10. The method, then:
as §7
For orientation: Quantitative PCR measures a nucleic acid by following its amplification.

Experiment [2] concerns three types of GnRH receptors that exist in fish. The arrangement: method as in Zohar and Mylonas, 2001. The following applies: ref Zohar and Mylonas, 2001; cited from earlier work.
In experiment [3] the test system is FSH cells in pituitary cell culture. The following applies: ref Lin and Ge, 2009; cited from earlier work. From the text:
GnRH has long been considered the common stimulator of gonadotropin secretion in vertebrates. However, accumulating evidence for GnRH-independent FSH secretion in several mammalian species has questioned the regulatory role of GnRH ([McCann et al., 2001]; [Padmanabhan et al., 1997]; [Culler and Negro-Vilar, 1987]; [Pau et al., 1991]).

Take (D-Ala6,Pro9-Net)-mammalian GnRH: the “calcium transient average half width, LH cells” value in the experiment on LH cells (ex vivo brain-pituitary preparation, GnRH puff 78.74 µM, pH 7.2 ACSF, Fig 3-supplement 2: mean of 20 cell traces per fish, 3 females, 3 males) is on record as 48.6 s. In the experiment with LH cells (ex vivo, GnRH 78.74 µM, n=10), the “calcium response to GnRH, LH cells” value was “synchronized increase of calcium in all luteinizing hormone (LH) cells; also recorded: strong and slow calcium rise”. Also, the “calcium transient average amplitude, LH cells” value with LH cells (ex vivo, GnRH puff 78.74 µM, Fig 3-supplement 2: mean of 20 cell traces per fish, 3 females, 3 males) is given as 1.99 ∆F/F. For the same substance, the “percentage of cells responsive to GnRH stimulus, LH cells” value in the experiment on LH cells (ex vivo, GnRH puff 78.74 µM, coefficient values higher than the 80 percentiles of basal values, n=10 (3 males, 7 females), p<0.001 vs FSH cells) was 95%. Also, in the experiment with LH cells (ex vivo, after GnRH puff 78.74 µM, basal 0.26 ± 0.02, n=10 (3 males, 7 females), mean ± SEM, p<0.0001), the “mean of max cross-correlation coefficient of calcium traces, LH cells” value stood at 0.66 ± 0.05. Further, in the experiment with FSH cells (GnRH 300 μl, n=10), the “calcium response to GnRH, FSH cells” value is recorded as “partial increase in follicle-stimulating hormone (FSH) cells; also recorded: inconsistent response of FSH cells”. Further, the “percentage of cells responsive to GnRH stimulus, FSH cells” value in the experiment with FSH cells (GnRH puff 300 μl, coefficient values higher than the 80 percentiles of basal values, same fish, n=10 (3 males, 7 females)) is 56%. In the experiment on FSH cells (GnRH puff 300 μl, percent of fish, n=10), the “fish displaying an increase in cross-correlation values from the basal state, FSH cells” value was determined as 50%. For the same substance, the “LH secretion response to GnRH” value in the experiment on LH secretion is “significant rise in LH secretion”. The “FSH secretion response to GnRH” value in the experiment with FSH secretion was “not significant from the basal secretion”. Further, in the experiment with FSH plasma levels, the “FSH expression and secretion response to GnRH injection” value is recorded as “did not reach statistical significance”. In addition, in experiment [1], the “LH expression in the pituitary after GnRH injection” value was “only affected LH expression in the pituitary; also recorded: Expression level increased significantly only in response to GnRH injection”. Moreover, the “binding to fish GnRH receptors” value in experiment [2] is given as “effectively binds to the three types of GnRH receptors that exist in fish”. Besides, the “FSH cells response to GnRH stimuli in pituitary cell culture” value in experiment [3] is “lack of FSH cells response to GnRH stimuli in pituitary cell culture”.
